Experimental data as given in US8580965B2, “Substituted sulfonamide compounds” (Gruenenthal GmbH, priority 2006, dated 2013).

Experiments:
[1] = molecular target: T1, human B1R receptor (bradykinin 1 receptor) (Homo sapiens, UniProt P46663); assay: FLIPR Ca2+ assay (Fluo-4) on CHO K1 cells stably transfected with the human B1R gene; % activation and % inhibition at 10 μM; assay type: cell-based; details: CHO-K1, test substance 10 μM; CHO K1 hB1R cells; Ca2+ inflow after 0.5 nM Lys-Des-Arg9-bradykinin; read-out: B1R antagonism, human [10 μM] % inhibition
T1 construct: host or cells: CHO K1 cells (hB1R cells)
T1 sequence (P46663 1-353): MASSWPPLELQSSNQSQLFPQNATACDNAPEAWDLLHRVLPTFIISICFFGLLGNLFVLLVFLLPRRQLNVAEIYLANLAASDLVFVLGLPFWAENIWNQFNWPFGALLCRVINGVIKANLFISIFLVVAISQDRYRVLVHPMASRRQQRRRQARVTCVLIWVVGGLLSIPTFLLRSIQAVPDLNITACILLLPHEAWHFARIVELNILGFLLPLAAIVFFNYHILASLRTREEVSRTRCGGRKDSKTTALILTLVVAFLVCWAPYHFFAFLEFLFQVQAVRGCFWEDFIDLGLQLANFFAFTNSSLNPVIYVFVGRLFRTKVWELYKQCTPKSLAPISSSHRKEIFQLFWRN
How it was run: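 CHO K1 cells stably expressing human or rat B1R, Fluo-4 loaded, read by FLIPR (peak fluorescence). Compound at 10 µM first gives % activation versus agonist; after 10 min, agonist (human: 0.5 nM Lys-Des-Arg9-bradykinin; rat: 100 nM Des-Arg9-bradykinin) gives % inhibition relative to maximal inhibition.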

[2] = molecular target: T2, B1R receptor of the rat (bradykinin 1 receptor) (Rattus norvegicus, UniProt P97583); assay: FLIPR Ca2+ assay (Fluo-4) on CHO K1 cells stably transfected with the B1R gene of the rat; % activation and % inhibition at 10 μM; assay type: cell-based; details: CHO-K1, test substance 10 μM; CHO K1 rB1R cells; Ca2+ inflow after 100 nM Des-Arg9-bradykinin; read-out: B1R antagonism, rat [10 μM] % inhibition
T2 construct: host or cells: CHO K1 cells (rB1R cells)
T2 sequence (P97583 1-337): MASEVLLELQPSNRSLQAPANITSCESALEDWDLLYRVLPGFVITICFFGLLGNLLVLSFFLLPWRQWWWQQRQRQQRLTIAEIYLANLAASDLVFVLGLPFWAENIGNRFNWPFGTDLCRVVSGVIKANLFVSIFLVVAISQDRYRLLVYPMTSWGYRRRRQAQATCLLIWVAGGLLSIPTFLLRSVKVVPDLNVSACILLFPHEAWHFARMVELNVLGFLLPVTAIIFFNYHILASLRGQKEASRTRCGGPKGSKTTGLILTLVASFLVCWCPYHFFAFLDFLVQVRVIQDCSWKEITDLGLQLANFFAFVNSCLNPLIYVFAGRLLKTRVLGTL
Experimental: The agonistic or antagonistic action of substances can be quantified on the bradykinin receptor 1 (B1R) of the species human and rat with ectopically expressing cell lines (CHO K1 cells) and with the aid of a Ca^2+-sensitive dye (Fluo-4) using a fluorescent imaging plate reader (FLIPR). The indication in % activation is based on the Ca^2+ signal after addition of Lys-Des-Arg^9-bradykinin (0.5 nM) or Des-Arg^9-bradykinin (100 nM). Antagonists result in a suppression of the Ca^2+ influx following administration of the agonist. The % inhibition in comparison with the maximum achievable inhibition is indicated.
Functional Investigation on the Bradykinin 1 Receptor (B1R)
The agonistic or antagonistic action of substances can be determined on the bradykinin 1 receptor (B1R) of the human and rat species with the following assay. According to this assay, the Ca^2+ inflow through the channel is quantified with the aid of a Ca^2+-sensitive dyes (Fluo-4 type, Molecular Probes Europe BV, Leiden, The Netherlands) in a fluorescent imaging plate reader (FLIPR, Molecular Devices, Sunnyvale, USA).
Chinese Hamster Ovary cells (CHO K1 cells) which are stably transfected with the human B1R gene (hB1R cells, Euroscreen s.a., Gosselies, Belgium) or the B1R gene of the rat (rB1R cells, Axxam, Milan, Italy) are used. For functional investigations, these cells are plated-out on black 96-well plates with a clear base (BD Biosciences, Heidelberg, Germany) in a density of 20,000-25,000 cells/well. Overnight, the cells are incubated at 37° C. and 5% CO2 in culture medium (hB1R cells: Nutrient Mixture Ham's F12, Gibco Invitrogen GmbH, Karlsruhe, Germany; rB1R cells: D-MEM/F12, Gibco Invitrogen, Karlsruhe, Germany) with 10 vol. % FBS (foetal bovine serum, Gibco Invitrogen GmbH, Karlsruhe, Germany). On the following day, the cells are loaded with 2.13 μM Fluo-4 (Molecular Probes Europe BV, Leiden, The Netherlands) in HBSS buffer (Hank's buffered saline solution, Gibco Invitrogen GmbH, Karlsruhe, Germany) […] (Sigma-Aldrich, Taufkirchen, Germany) and 10 mM HEPES (Sigma-Aldrich, Taufkirchen, Germany) for 60 min at 37° C. The plates are subsequently washed 2× with HBSS buffer, and HBSS buffer which additionally contains 0.1% BSA (bovine serum albumin; Sigma-Aldrich, Taufkirchen, Germany), 5.6 mM glucose and 0.05% gelatine (Merck KGaA, Darmstadt, Germany) is added. After a further incubation of 20 minutes at room temperature, the plates are inserted into the FLIPR for Ca^2+ measurement. The Ca^2+-dependent fluorescence is measured here before and after addition of substances (λex=488 nm, λem=540 nm). The quantification is effected by measurement of the highest fluorescence intensity (FC, fluorescence counts) over time.
The FLIPR protocol comprises 2 additions of substance. Test substances (10 μM) are first pipetted on to the cells and the Ca^2+ inflow is compared with the control (hB1R: Lys-Des-Arg^9-bradykinin 0.5 nM; rB1R: Des-Arg^9-bradykinin 100 nM). The value in % activation based on the Ca^2+ signal after addition of Lys-Des-Arg^9-bradykinin (0.5 nM) or Des-Arg^9-bradykinin (100 nM) is obtained therefrom. After incubation for 10 minutes, 0.5 nM Lys-Des-Arg^9-bradykinin (hB1R) or 100 nM Des-Arg^9-bradykinin (rB1R) are applied and the inflow of Ca^2+ is likewise determined. Antagonists lead to a suppression of the Ca^2+ inflow. % inhibition compared with the maximum inhibition which can be achieved is calculated. The compounds show a good activity on the human and on the rat receptor. The following data were determined by way of example: […]

| inhibition at 10 µM [1] [%] | inhibition at 10 µM [2] [%] | SMILES |
| --- | --- | --- |
| -13.5 | -1.13 | CN(CCOCC(=O)N1CCC(O)(c2ccccn2)CC1)S(=O)(=O)c1ccc(F)cc1 [Example 56, 4-fluoro-N-{2-[2-(4′-hydroxy-3′,4′,5′,6′-tetrahydro-2′H-[2,4′]bipyridinyl-1′-yl)-2-oxo-ethoxy]-ethyl}-N-methyl-phenylsulfonamide] |
| 54.8 | 54.5 | O=C(COC1CCN(S(=O)(=O)c2c(Cl)cc(Cl)cc2Cl)C1)N1CCC(O)(c2ccccc2)CC1 (centres unmarked) [Example 108, 1-(4-hydroxy-4-phenylpiperidin-1-yl)-2-(1-(2,4,6-trichlorophenylsulfonyl)pyrrolidin-3-yloxy)ethanone] |
| 1.29 | -6.31 | COc1ccc(S(=O)(=O)N(C)CCOCC(=O)N2CCC(O)(c3ccccn3)CC2)cc1OC [Example 41, N-{2-[2-(4′-hydroxy-3′,4′,5′,6′-tetrahydro-2′H-[2,4′]bipyridinyl-1′-yl)-2-oxo-ethoxy]-ethyl}-3,4-dimethoxy-N-methyl-phenylsulfonamide] |
| 93.2 | 91.4 | CN(c1ccccc1CCC(=O)N1CCC(O)(c2cccnc2)CC1)S(=O)(=O)c1ccc(Cl)c(Cl)c1 [Example 125, 3,4-dichloro-N-(2-(3-(4-hydroxy-4-(pyridin-3-yl)piperidin-1-yl)-3-oxopropyl)phenyl)-N-methylphenylsulfonamide] |
| 106 | 102 | COc1cc(C)c(S(=O)(=O)N(C)CCOCC(=O)N2CCC(O)(c3cccs3)CC2)c(C)c1 [Example 86, N-{2-[2-(4-hydroxy-4-thiophen-2-yl-piperidin-1-yl)-2-oxo-ethoxy]-ethyl}-4-methoxy-2,6,N-trimethyl-phenylsulfonamide] |
| 103 | 96.4 | O=C(COCC1CCCN1S(=O)(=O)c1c(Cl)cccc1Cl)N1CCC(O)(c2cccnc2)CC1 (centres unmarked) [Example 197, 2-((1-(2,6-dichlorophenylsulfonyl)pyrrolidin-2-yl)methoxy)-1-(4-hydroxy-4-(pyridin-3-yl)piperidin-1-yl)ethanone] |
| 69.2 | 64.2 | O=C(COCC1CCCCN1S(=O)(=O)c1cccc2ccccc12)N1CCC(O)(Cc2ccccc2)CC1 (centres unmarked) [Example 64, 1-(4-benzyl-4-hydroxy-piperidin-1-yl)-2-[1-(naphthalene-1-sulfonyl)-piperidin-2-ylmethoxy]-ethanone] |
| 102 | 105 | O=C(COCC1CCCCN1S(=O)(=O)c1ccccc1C(F)(F)F)N1CCC(O)(c2ccc(Br)cc2)CC1 (centres unmarked) [Example 174, 1-(4-(4-bromophenyl)-4-hydroxypiperidin-1-yl)-2-((1-(2-(trifluoromethyl)phenylsulfonyl)piperidin-2-yl)methoxy)ethanone] |
| 103 | 104 | O=C(COCC1CCCCN1S(=O)(=O)c1ccccc1C(F)(F)F)N1CCC(O)(c2ccc(Cl)cc2)CC1 (centres unmarked) [Example 173, 1-(4-(4-chlorophenyl)-4-hydroxypiperidin-1-yl)-2-((1-(2-(trifluoromethyl)phenylsulfonyl)piperidin-2-yl)methoxy)ethanone] |
| 105 | 98.2 | Cc1cc(S(=O)(=O)N(C)CCOCC(=O)N2CCC(O)(c3cccnc3)CC2)c(Cl)cc1Cl [Example 199, 2,4-dichloro-N-(2-(2-(4-hydroxy-4-(pyridin-3-yl)piperidin-1-yl)-2-oxoethoxy)ethyl)-N,5-dimethylphenylsulfonamide] |
| 99.2 | 98.5 | COc1cc(C)c(S(=O)(=O)N2CCC(COCC(=O)N3CCC(O)(c4ccc(Cl)cc4)CC3)C2)c(C)c1 (centres unmarked) [Example 202, 1-(4-(4-chlorophenyl)-4-hydroxypiperidin-1-yl)-2-((1-(4-methoxy-2,6-dimethylphenylsulfonyl)pyrrolidin-3-yl)methoxy)ethanone] |
| 103 | 97.3 | O=C(COC[C@@H]1Cc2ccccc2CN1S(=O)(=O)c1ccc(Cl)cc1Cl)N1CCC(O)(c2cccnc2)CC1 [Example 129, (S)-2-((2-(2,4-dichlorophenylsulfonyl)-1,2,3,4-tetrahydroisoquinolin-3-yl)methoxy)-1-(4-hydroxy-4-(pyridin-3-yl)piperidin-1-yl)ethanone] |
| 105 | 101 | COc1cc(C)c(S(=O)(=O)N(CCOCC(=O)N2CCC(O)(c3ccc(Br)cc3)CC2)CC(C)C)c(C)c1C [Example 210, N-(2-(2-(4-(4-bromophenyl)-4-hydroxypiperidin-1-yl)-2-oxoethoxy)ethyl)-N-isobutyl-4-methoxy-2,3,6-trimethylphenylsulfonamide] |
| 54.1 | 24.1 | O=C(COCC1CCN(S(=O)(=O)c2c(Cl)cc(Cl)cc2Cl)C1)N1CCC(O)(c2ccc(Cl)cc2)CC1 (centres unmarked) [Example 272, 1-(4-(4-chlorophenyl)-4-hydroxypiperidin-1-yl)-2-((1-(2,4,6-trichlorophenylsulfonyl)pyrrolidin-3-yl)methoxy)ethanone] |
| 77.1 | 101 | Cc1cc(S(=O)(=O)N2CCCCC2COCC(=O)N2CCC(O)(c3cccnc3)CC2)c(C)cc1Cl (centres unmarked) [Example 157, 2-((1-(4-chloro-2,5-dimethylphenylsulfonyl)piperidin-2-yl)methoxy)-1-(4-hydroxy-4-(pyridin-3-yl)piperidin-1-yl)ethanone] |
| 23.5 | 89.5 | O=C(COCC1CCCN1S(=O)(=O)c1c(Cl)cccc1Cl)N1CCC(O)(Cc2ccccc2)CC1 (centres unmarked) [Example 221, 1-(4-benzyl-4-hydroxypiperidin-1-yl)-2-((1-(2,6-dichlorophenylsulfonyl)pyrrolidin-2-yl)methoxy)ethanone] |
